{"source": "ChEMBL document CHEMBL1132546", "about": "“Na(+)-glucose cotransporter (SGLT) inhibitors as antidiabetic agents. 4. Synthesis and pharmacological properties of 4'-dehydroxyphlorizin derivatives substituted on the B ring” (1999)", "data": [{"assay": "Compound was tested for urinary glucose excretion (mg/24 h) at 100 mg/Kg dose of compound given perorally", "assay_type": "functional, Rattus norvegicus, Urine", "design": "unit: mg/24 h", "values": [{"compound": "CC(=O)OC[C@H]1O[C@@H](Oc2cc(C)cc(OC(C)=O)c2C(=O)CCc2ccc3occc3c2)[C@H](O)[C@@H](O)[C@@H]1O", "Urinary glucose excretion": 183}, {"compound": "O=C(CCc1ccc2occc2c1)c1c(O)cccc1O[C@@H]1O[C@H](CO)[C@@H](O)[C@H](O)[C@H]1O", "Urinary glucose excretion": 321}, {"compound": "CC(=O)Oc1cc(C)cc(O[C@@H]2O[C@H](CO)[C@@H](O)[C@H](OC(C)=O)[C@H]2OC(C)=O)c1C(=O)CCc1ccc2occc2c1", "Urinary glucose excretion": 1450}, {"compound": "O=C(CCc1ccc2occc2c1)c1c(O)c(Cl)cc(Cl)c1O[C@@H]1O[C@H](CO)[C@@H](O)[C@H](O)[C@H]1O", "Urinary glucose excretion": 5}, {"compound": "C=CCc1ccc(O[C@@H]2O[C@H](CO)[C@@H](O)[C@H](O)[C@H]2O)c(C(=O)CCc2ccc3occc3c2)c1O", "Urinary glucose excretion": 5}, {"compound": "Cc1ccc(O)c(C(=O)CCc2ccc3occc3c2)c1O[C@@H]1O[C@H](CO)[C@@H](O)[C@H](O)[C@H]1O", "Urinary glucose excretion": 5}, {"compound": "CC(C)c1cc(O)c(C(=O)CCc2ccc3occc3c2)c(O[C@@H]2O[C@H](CO)[C@@H](O)[C@H](O)[C@H]2O)c1", "Urinary glucose excretion": 128}, {"compound": "COc1cc(O)c(C(=O)CCc2ccc3occc3c2)c(O[C@@H]2O[C@H](CO)[C@@H](O)[C@H](O)[C@H]2O)c1", "Urinary glucose excretion": 38}, {"compound": "CC(=O)O[C@H]1[C@H](Oc2cc(C)cc(O)c2C(=O)CCc2ccc3occc3c2)O[C@H](CO)[C@@H](O)[C@@H]1O", "Urinary glucose excretion": 482}, {"compound": "COCC(=O)OC[C@H]1O[C@@H](Oc2cc(C)cc(O)c2C(=O)CCc2ccc3occc3c2)[C@H](O)[C@@H](O)[C@@H]1O", "Urinary glucose excretion": 721}, {"compound": "CC(=O)O[C@H]1[C@H](Oc2cc(C)cc(O)c2C(=O)CCc2ccc3occc3c2)O[C@H](CO)[C@@H](O)[C@@H]1OC(C)=O", "Urinary glucose excretion": 349}, {"compound": "CC(=O)OC[C@H]1O[C@@H](Oc2cc(C)cc(O)c2C(=O)CCc2ccc3occc3c2)[C@H](O)[C@@H](O)[C@@H]1O", "Urinary glucose excretion": 540}, {"compound": "CCc1ccc(O[C@@H]2O[C@H](CO)[C@@H](O)[C@H](O)[C@H]2O)c(C(=O)CCc2ccc3occc3c2)c1O", "Urinary glucose excretion": 1}, {"compound": "COC1(C)OC[C@H]2O[C@@H](Oc3cc(C)cc(O)c3C(=O)CCc3ccc4occc4c3)[C@H](O)[C@@H](O)[C@@H]2O1", "note": "(some centres undefined)", "Urinary glucose excretion": 729}, {"compound": "COC(=O)O[C@H]1[C@H](O)[C@@H](O)[C@H](Oc2cc(C)cc(O)c2C(=O)CCc2ccc3occc3c2)O[C@@H]1CO", "Urinary glucose excretion": 1407}, {"compound": "COCCOC(=O)OC[C@H]1O[C@@H](Oc2cc(C)cc(O)c2C(=O)CCc2ccc3occc3c2)[C@H](O)[C@@H](O)[C@@H]1O", "Urinary glucose excretion": 817}, {"compound": "Cc1cc(O)c(C(=O)CCc2ccc3occc3c2)c(O[C@@H]2O[C@H](COC(=O)OC(C)C)[C@@H](O)[C@H](O)[C@H]2O)c1", "Urinary glucose excretion": 980}, {"compound": "O=C(CCc1ccc2occc2c1)c1c(O)cc(Cl)cc1O[C@@H]1O[C@H](CO)[C@@H](O)[C@H](O)[C@H]1O", "Urinary glucose excretion": 8}, {"compound": "O=C(CCc1ccc2occc2c1)c1c(O)cc(O)cc1O[C@@H]1O[C@H](CO)[C@@H](O)[C@H](O)[C@H]1O", "Urinary glucose excretion": 38}, {"compound": "CCOC(=O)OC[C@H]1O[C@@H](Oc2cc(C)cc(O)c2C(=O)CCc2ccc3occc3c2)[C@H](O)[C@@H](O)[C@@H]1O", "Urinary glucose excretion": 805}, {"compound": "CCCc1cc(O)c(C(=O)CCc2ccc3occc3c2)c(O[C@@H]2O[C@H](CO)[C@@H](O)[C@H](O)[C@H]2O)c1", "Urinary glucose excretion": 27}, {"compound": "CCc1cc(O)c(C(=O)CCc2ccc3occc3c2)c(O[C@@H]2O[C@H](CO)[C@@H](O)[C@H](O)[C@H]2O)c1", "Urinary glucose excretion": 864}, {"compound": "Cc1cc(O)c(C(=O)CCc2ccc3occc3c2)c(O[C@@H]2O[C@H](CO)[C@@H](O)[C@H](O)[C@H]2O)c1", "Urinary glucose excretion": 935}, {"compound": "COC(=O)OC[C@H]1O[C@@H](Oc2cc(C)cc(O)c2C(=O)CCc2ccc3occc3c2)[C@H](O)[C@@H](O)[C@@H]1O", "Urinary glucose excretion": 1192}]}]}
